# Test results as given in patent US8771611B2, “System and methods of log-scale concentration gradients” (Auburn University, priority 2011, dated 2014).
# Where two headings read alike, the source gives them in different places.
# How the values were obtained:
# [1] = molecular target: matrix metalloproteases-9 (MMP-9) (Homo sapiens, UniProt P14780); experiment: on-chip (microfluidic chip) logistic dose response of MMP-9 inhibitors, fluorogenic MMP substrate III; assay type: biochemical; conditions: for deviation in the IC50 values between on-chip and off-chip experiment: comparison on-chip vs off-chip; for IC50: on-chip, 22.15 μM substrate, 5 nM enzyme, inhibitor range 0.063 nM~250 nM, four parameter logistic fit, read-out: IC50 (on-chip, from dose response plots)
# Text: Therefore, a concentration range of 0 to 1000×, in logarithmic scale, is able to be generated in a single experiment.
# To determine the kinetic parameters, KM and kcat, the initial velocities of the individual reactions are able to be curve-fitted with the Michaelis-Menten equation using the enzyme kinetics module of Sigmaplot software (Systat software Inc.). For IC50 values with standard error, and 95% confidence interval, the four parameter nonlinear-logistic-regression model available to the inhibition data are curve-fitted. The four parameter model is of the form as shown in the equation (1) below.
# [formula] Where, IC50 refers to median point of the concentration-response plot; [I] represents the concentration of inhibitor; h is the Hill coefficient or Hill slope, which means the steepness of dose-response plot; %I designates percentage inhibiting potency, including minimum and maximum.
# Therefore, by introducing the three concentrations of inhibitor and buffer, meaningful logarithmic concentrations for dose response are generated such as 0, 1, 2.5, 5, 7.5, 10, 25, 50, 75, 100, 250, 500, 750 and 1000× by the device disclosed herein in semi-direct dilution.
# An inhibitor concentration range of 0.063 nM˜250 nM (1:4000) is created on the chip in the 14 reactors. Note that, all the 14 reactors are used considering the requirement of a wider concentration range of inhibitors (FIG. 2D), 22.15 μM of substrate and 5 nM of enzyme are used, respectively.
# The substrate QXLTM520-Pro-Leu-Gly-Cys-(Me)-His-Ala-D-Arg-Lys-(5-carboxy-fluorescein)-NH2 (AnaSpec Inc), internally quenched peptide matrix of matrix metalloproteinases-9 (MMP-9) is used for the enzyme reaction. This substrate releases fluorescent signals through dissociation of the quencher (QXLTM520) and carboxyfluorescein (FAM), fluorophore, via proteolytic cleavage by enzymatic reaction. […] For establishing a standard curve, reference dye, FAM-Pro-Leu-OH is used. The excitation and emission wavelengths for FAM are 480 nm and 520 nm, respectively. According to the enzyme reaction types, 50 nM, 10 nM, and 5 nM of MMP-9 are separately dissolved into the reaction buffer (TCNBT; 50 mM Tris, 10 mM CaCl2, 150 mM NaCl, 0.05% Brij-35, 0.05% Tween-20 and 0.1% BSA at pH 7.5). For the substrate of MMP, a stock solution is prepared as 100 μM in TCNBT buffer. […] Prepared reagents are stored at −20 ° C. until dilution with TCNBT buffer for experiment.
# [2] = molecular target: T1, MMP-9 enzyme (Homo sapiens, UniProt P14780); experiment: off-chip experiment, IC50 of MMP-9 inhibitors; assay type: biochemical; conditions: read-out: IC50 from the off-chip experiment
# Text: These deviations in the values of IC50 are acceptable, considering enzyme as a biological sample with variable properties.
# [3] = molecular target: T1, MMP-9 enzyme; conditions: from some literature; read-out: reported IC50 values from literature; cited from earlier work
# Chain of matrix metalloproteases-9 (MMP-9) (P14780 94-707): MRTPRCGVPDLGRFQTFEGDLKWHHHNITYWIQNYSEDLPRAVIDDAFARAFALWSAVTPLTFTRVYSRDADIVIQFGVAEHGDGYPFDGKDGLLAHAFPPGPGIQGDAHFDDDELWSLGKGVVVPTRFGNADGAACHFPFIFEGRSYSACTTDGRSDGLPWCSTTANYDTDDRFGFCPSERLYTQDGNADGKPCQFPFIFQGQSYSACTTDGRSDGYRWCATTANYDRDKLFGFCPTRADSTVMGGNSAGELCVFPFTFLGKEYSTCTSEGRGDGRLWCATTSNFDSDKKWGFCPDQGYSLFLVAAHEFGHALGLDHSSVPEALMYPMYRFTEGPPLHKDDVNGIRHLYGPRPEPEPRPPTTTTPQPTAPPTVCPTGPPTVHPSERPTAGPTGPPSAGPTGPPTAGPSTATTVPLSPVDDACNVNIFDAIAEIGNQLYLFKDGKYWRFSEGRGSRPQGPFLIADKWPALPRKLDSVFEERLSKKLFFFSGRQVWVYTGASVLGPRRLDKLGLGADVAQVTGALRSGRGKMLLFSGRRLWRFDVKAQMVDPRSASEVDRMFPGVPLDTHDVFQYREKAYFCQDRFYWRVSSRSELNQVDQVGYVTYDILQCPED
# T1 sequence (P14780 94-707): as above
Structure (SMILES),deviation in the IC50 values between on-chip and off-chip experiment [1],IC50 [1],IC50 [2],IC50 [3]
CC(C)(NS(=O)(=O)c1ccc(Oc2ccc(F)cc2)cc1)C(=O)NO [CP417474],20%,11.9 ± 1 nM,14.9 ± 0.9 nM,–
CNC(=O)[C@H](Cc1ccccc1)NC(=O)[C@H](CC(C)C)[C@H](CSc1cccs1)C(=O)NO [batimastat],–,4.1 ± 0.2 nM,3.5 ± 0.3 nM,3 to 4 nM
CNC(=O)[C@@H](NC(=O)[C@H](CC(C)C)[C@H](O)C(=O)NO)C(C)(C)C [marimastat],3.2%,–,–,–
